The subject of one experiment is N87 stomach cancer cells. As to the kind of experiment: MTT cytotoxicity assay against N87 cells. Conditions: Homo sapiens, 96 h. The format is cell-based, human. The protocol: Cytotoxicity of all the compounds against N87 cells was determined using MTT assay. Briefly, 25,000 cells suspended in 0.1 mL of cell culture media were added in each well of a 96-well plate. After allowing the cells to attach for 24 h, media was aspirated from all the wells, and different concentrations of anticancer compounds in cell culture media were added to the wells in triplicate. Six wells were incubated with drug free media, and used as control. 96 hours after the treatment, 25 μL of MTT solution (5 mg/mL in phosphate saline buffer, pH 7.4) was added to each well, and the plate was incubated for 4.5 hours at 37° C. in the incubator. After incubation, 100 μL of 10% SDS in 0.01 M hydrochloric acid was added to each well, and the plate was incubated overnight at 37° C. The next day absorbance was determined in each well at 590 nm using a plate reader. IC50 value of each compound was determined using GraphPad Prism.
A general note: Tetrazolium dyes change colour on reduction, which living cells bring about.

The test system of another experiment is HL-60 leukemia cells. As to the kind of experiment: CellTiter-Blue cell viability assay against HL-60 cells. The format is cell-based. The conditions noted are these: Homo sapiens, HL-60, 48 h, leukemia cells HL60, CellTiter-Blue. The protocol:
HL-60 cells were purchased from CLS Cell Line Service GmbH (Eppelheim, Germany) and cultured in Roswell Park Memorial Institute-1640 medium (RPMI-1640; Thermo Fisher Scientific, Inc; Waltham, Mass., USA) supplemented with 10% fetal bovine serum (FBS; Thermo Fisher Scientific) and ciprofloxacin (10 μg/ml; Cipla Limited; Mumbai, India), at 37° C. with 5% CO2 in a humidified incubator.
The CellTiter®-Blue Cell Viability assay was acquired from Promega Corporation (Madison, Wis., USA). Cell viability assay was performed as follows. The cells (10^4/well) were incubated with KAC-12 at a concentration gradient ranging from 0.01 to 100 μM, in 96-well plates for 48 h at 37° C. Subsequently, 20 μL of CellTiter®-Blue Cell Viability reagent was added to each well and incubated for an additional 2 h for the development of fluorescence. The fluorescence emission was measured at 590 nm using the SpectraMax® i3x Multi-Mode microplate reader (Molecular Devices, LLC; San Jose, Calif., USA.) and plotted against drug concentrations to determine the mean inhibitory concentration of KAC-12 producing 50% decrease in cell viability (IC50).

Experiment [1] relates to HCT116 colon cancer cells. In words: MTT viability assay against HCT-116 cells. The format is cell-based, human. As for the experimental part: The KAC compounds were evaluated for antiproliferative effect against HCT-116 and MCF7 cell lines using the MTT viability assay and to calculate the relative IC50 values for each compound. Cells were seeded in triplicate in 96-well plates at a density of 10×10^3 cells/mL in a total volume of 100 μL per well and allowed to adhere overnight. Cells were treated with various concentrations of tested KAC compounds or 0.1% of DMSO (vehicle) for 27 h. Then the medium was discarded and 100 μL per well of MTT (5 mg/mL in PBS) containing medium was added. After incubation at 37° C. for 3 h, the MTT-containing medium was replaced by DMSO (100 μL per well) to dissolve the formazon crystal and incubated for 10 min. Absorbance of the solution was measured by microplate reader at […]. The IC50 values were calculated according to the dose-dependent curves using GraphPad prism, version 5.0. All the experiments were repeated in at least three independent experiments.

Usually IC50 stands for the concentration that gives 50% inhibition. Turning to `Nc1ccc(CC(=O)NCc2ccccc2)cc1` [KAC-14, 2-(4-aminophenyl)-N-benzylacetamide], the IC50 with N87 stomach cancer cells was more than 50 µM; in the experiment on HL-60 leukemia cells it was more than 50 µM; in experiment [1] (Homo sapiens, HCT-116, 27 h), more than 50 µM. Also, in experiment [1] (27 h), the “IC50 HCT116” value is given as “did not affect any of the tested cell lines”.
